Test systems include HOP-92 NSCLC; M14 melanoma; NCI/ADR-RES ovarian; PC-3 prostate; U251 CNS.
What all share (assay): inhibition of tumour cell growth, NCI panel, 48 h

The results in this text go back to PubChem BioAssay (NCI).

Each structure is given as a SMILES string.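 Briefly, cells in 96-well plates were exposed to five compound concentrations for 48 h, and endpoints were estimated by linear interpolation. The concentration for 50% growth inhibition is given as GI50. TGI: concentration producing complete growth inhibition.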

In the case of `CCOC(=O)C1=C(C)NC2SC(=O)/C(=C\c3ccccc3Cl)N2C1c1ccccc1` (stereo unspecified), the GI50 is over 100 µM in the experiment with HOP-92 NSCLC; over 100 µM in the experiment on M14 melanoma; over 100 µM with NCI/ADR-RES ovarian; 73.3 µM in the experiment with PC-3 prostate; over 100 µM with U251 CNS. Also, the TGI in the experiment on HOP-92 NSCLC, in the experiment with M14 melanoma, with NCI/ADR-RES ovarian, in the experiment with PC-3 prostate and in the experiment on U251 CNS was over 100 µM in each case.

With `CCCCN(CCCC)c1ccc(C(=N)c2ccc(N(C)C)cc2)cc1`, the GI50 with HOP-92 NSCLC is 0.362 µM; in the experiment with M14 melanoma, 0.908 µM; in the experiment on NCI/ADR-RES ovarian, 0.335 µM; with PC-3 prostate, 0.409 µM; in the experiment on U251 CNS, 0.46 µM. Further, the TGI in the experiment on HOP-92 NSCLC was 1.78 µM; in the experiment on M14 melanoma, 2.25 µM; in the experiment on NCI/ADR-RES ovarian, 1.27 µM; in the experiment on PC-3 prostate, 1.67 µM; in the experiment with U251 CNS, 1.42 µM.

With `CN(CCC#N)c1ccc(/C=C(\C#N)c2cccc(C(F)(F)F)c2)cc1`, the GI50 with HOP-92 NSCLC is 3.01 µM; with M14 melanoma, 3.51 µM; with NCI/ADR-RES ovarian it was 3.68 µM; in the experiment with PC-3 prostate, 4.07 µM; in the experiment with U251 CNS it was 3.75 µM. Besides, the TGI in the experiment with HOP-92 NSCLC is 66.7 µM; in the experiment on M14 melanoma, over 100 µM; in the experiment on NCI/ADR-RES ovarian, over 100 µM; in the experiment on PC-3 prostate, over 100 µM; in the experiment with U251 CNS, over 100 µM.

Take `C=C1C(=O)O[C@H]2[C@H]1CC/C(Cn1cc(CNCCc3c[nH]c4ccc(Cl)cc34)nn1)=C\CC[C@@]1(C)O[C@@H]21`: the GI50 in the experiment with HOP-92 NSCLC is 1.34 µM; with M14 melanoma, 13.7 µM; in the experiment on NCI/ADR-RES ovarian, over 100 µM; in the experiment on PC-3 prostate, 8.96 µM; in the experiment with U251 CNS, 7.59 µM. Besides, the TGI in the experiment with HOP-92 NSCLC was 3.05 µM; in the experiment on M14 melanoma, 31.2 µM; in the experiment with NCI/ADR-RES ovarian it was over 100 µM; in the experiment with PC-3 prostate, 27 µM; in the experiment with U251 CNS, 20.9 µM.

For the compound `O=[N+]([O-])c1cc([N+](=O)[O-])c(Cl)c(Cl)c1Cl`, the GI50 with HOP-92 NSCLC is 1.68 µM; with NCI/ADR-RES ovarian, 2.87 µM; in the experiment with U251 CNS, 1.59 µM. In addition, the TGI in the experiment on HOP-92 NSCLC was 3.15 µM; in the experiment on NCI/ADR-RES ovarian, over 100 µM; in the experiment with U251 CNS, 3.02 µM.

With `COc1cc([N+](=O)[O-])c(S(=O)(=O)O)cc1NS(=O)(=O)c1ccc(C)cc1`, the TGI in the experiment with M14 melanoma, in the experiment with NCI/ADR-RES ovarian, in the experiment on PC-3 prostate and in the experiment with U251 CNS was over 100 µM in each case.

For the compound `O=C(COc1ccc(/C=C2\Oc3ccccc3C2=O)cc1)Nc1nccs1`, the GI50 in the experiment on HOP-92 NSCLC is 1.53 µM; in the experiment with NCI/ADR-RES ovarian, 64.9 µM; with PC-3 prostate it was 38.1 µM; with U251 CNS, 40.6 µM. The TGI with HOP-92 NSCLC was 4.85 µM; with NCI/ADR-RES ovarian, over 100 µM; in the experiment with PC-3 prostate, over 100 µM; in the experiment on U251 CNS it was over 100 µM.

For `NC(=O)c1cc(-c2ccncc2)cc(-c2ccccc2)c1N`, the GI50 was over 25 µM with M14 melanoma, over 21 µM with NCI/ADR-RES ovarian, over 22.3 µM in the experiment on PC-3 prostate and over 25 µM in the experiment on U251 CNS. Further, the TGI in the experiment on M14 melanoma, in the experiment with NCI/ADR-RES ovarian, with PC-3 prostate and with U251 CNS was over 25 µM each time.

On to `Cc1cc(N2CCN(C)CC2)nc(NCc2cc(Nc3ccnc4cc(Cl)ccc34)ccc2F)n1`, for which the results for the GI50 with M14 melanoma, with PC-3 prostate and with U251 CNS were 2 µM, 3.51 µM and 1.87 µM, respectively. Also, the TGI in the experiment on M14 melanoma was 3.86 µM; in the experiment on PC-3 prostate, over 100 µM; in the experiment with U251 CNS, 3.73 µM.

In the case of `CC(N=C(N)N)C(=O)O` (stereo unspecified), the TGI with M14 melanoma, with NCI/ADR-RES ovarian, in the experiment on PC-3 prostate and in the experiment with U251 CNS was over 100 µM each time.

For the compound `COc1cc2c(c(OC)c1OC)C(=O)CC(c1cccc(NC(=O)c3ccc(Br)cc3)c1)O2` (stereo unspecified), the GI50 in the experiment with M14 melanoma was 2.08 µM; with NCI/ADR-RES ovarian, 2.41 µM; in the experiment on PC-3 prostate, 2.33 µM; in the experiment with U251 CNS it was 3.07 µM. The TGI is 7.49 µM with M14 melanoma, 9.45 µM in the experiment with NCI/ADR-RES ovarian, 8.59 µM in the experiment on PC-3 prostate and over 100 µM in the experiment with U251 CNS.

For `Cc1onc(-c2c(F)cccc2Cl)c1-c1ncc(-c2ccc(Cl)cc2)o1`, the values for the GI50 with M14 melanoma, in the experiment on NCI/ADR-RES ovarian and in the experiment with PC-3 prostate were 5.67 µM, 5.08 µM and 4.21 µM, respectively. Also, the TGI in the experiment with M14 melanoma, with NCI/ADR-RES ovarian and with PC-3 prostate was over 100 µM throughout.

With `COc1ccc(Cl)cc1Nc1nc(C(F)(F)F)ccc1C(=O)N/N=C/c1ccc([N+](=O)[O-])cc1`, the values for the GI50 with M14 melanoma, in the experiment with NCI/ADR-RES ovarian and in the experiment on U251 CNS were 1.6 µM, 2.25 µM and 2.06 µM, respectively. Further, the TGI with M14 melanoma was 5.41 µM; in the experiment with NCI/ADR-RES ovarian, 6.7 µM; in the experiment on U251 CNS it was 6.63 µM.
